Test results as given in ChEMBL document CHEMBL4321837, “Discovery of Potent and Orally Effective Dual Janus Kinase 2/FLT3 Inhibitors for the Treatment of Acute Myelogenous Leukemia and Myeloproliferative Neoplasms” (J Med Chem, 2019).
Blank lines part the entries; values can stand above or below the compound they belong to.

Columns and labels:
MV4-11 = test: Antiproliferative activity against FLT3-ITD-positive human MV4-11 cells assessed as reduction in cell growth after 72 hrs by MTT assay; format: functional, cell-based; conditions: MV4-11, 72 h
MOLM-13 = test: Antiproliferative activity against FLT3-ITD-positive human MOLM13 cells assessed as reduction in cell growth after 72 hrs by MTT assay; format: functional, cell-based; conditions: MOLM-13, 72 h
[1] = target: Tyrosine-protein kinase JAK1 (Homo sapiens, UniProt P23458); test: Inhibition of human JAK1 (866 to end residues) assessed as residual activity at 100 nM using GEEPLYWSFPAKK as substrate after 40 mins in presence of [gamma33P]-ATP by scintillation counting based radiometric assay relative to control
[2] = target: Tyrosine-protein kinase JAK2 (Homo sapiens, UniProt O60674); test: Inhibition of human JAK2 (808 to end residues) assessed as residual activity at 100 nM using KTFCGTPEYLAP as substrate after 40 mins in presence of [gamma33P]-ATP by scintillation counting based radiometric assay relative to control
[3] = target: T1, Tyrosine-protein kinase JAK3 (Homo sapiens) (UniProt P52333); test: Inhibition of human JAK3 (781 to end residues) assessed as residual activity at 100 nM using GGEEEEYFELVKK as substrate after 40 mins in presence of [gamma33P]-ATP by scintillation counting based radiometric assay relative to control
T1 sequence (whole entry): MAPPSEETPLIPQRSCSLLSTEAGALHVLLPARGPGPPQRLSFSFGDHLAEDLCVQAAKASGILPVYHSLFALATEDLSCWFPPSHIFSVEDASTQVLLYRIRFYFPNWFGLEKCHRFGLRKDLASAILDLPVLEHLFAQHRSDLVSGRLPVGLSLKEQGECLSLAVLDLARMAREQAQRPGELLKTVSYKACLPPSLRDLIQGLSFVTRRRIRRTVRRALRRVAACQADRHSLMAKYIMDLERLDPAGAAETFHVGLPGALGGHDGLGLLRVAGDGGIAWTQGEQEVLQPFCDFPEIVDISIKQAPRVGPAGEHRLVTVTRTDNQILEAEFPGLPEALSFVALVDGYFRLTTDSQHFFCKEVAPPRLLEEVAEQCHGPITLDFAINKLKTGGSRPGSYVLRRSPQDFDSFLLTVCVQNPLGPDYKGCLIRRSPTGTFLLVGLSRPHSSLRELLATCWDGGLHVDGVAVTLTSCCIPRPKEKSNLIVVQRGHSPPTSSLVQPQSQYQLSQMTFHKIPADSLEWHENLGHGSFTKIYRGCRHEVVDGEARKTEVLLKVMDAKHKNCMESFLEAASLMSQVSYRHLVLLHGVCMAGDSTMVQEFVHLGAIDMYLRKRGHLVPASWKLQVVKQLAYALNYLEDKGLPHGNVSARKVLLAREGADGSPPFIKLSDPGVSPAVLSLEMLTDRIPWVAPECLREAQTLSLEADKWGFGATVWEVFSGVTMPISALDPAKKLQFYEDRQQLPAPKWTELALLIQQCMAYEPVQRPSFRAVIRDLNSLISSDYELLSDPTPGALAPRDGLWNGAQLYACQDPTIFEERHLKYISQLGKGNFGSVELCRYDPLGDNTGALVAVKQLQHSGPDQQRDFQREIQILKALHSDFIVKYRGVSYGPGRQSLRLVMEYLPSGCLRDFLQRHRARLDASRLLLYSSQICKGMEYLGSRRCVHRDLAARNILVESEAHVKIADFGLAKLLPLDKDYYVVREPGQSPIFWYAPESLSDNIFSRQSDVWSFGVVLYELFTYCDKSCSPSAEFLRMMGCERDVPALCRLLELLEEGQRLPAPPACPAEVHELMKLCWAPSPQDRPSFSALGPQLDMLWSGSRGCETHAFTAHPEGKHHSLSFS

[4] = target: Receptor-type tyrosine-protein kinase FLT3 (Homo sapiens) (UniProt P36888); test: Inhibition of human FLT3 (564 to end residues) assessed as residual activity at 100 nM using EAIYAAPFAKKK as substrate after 40 mins in presence of [gamma33P]-ATP by scintillation counting based radiometric assay relative to control
Chain of Receptor-type tyrosine-protein kinase FLT3 (Homo sapiens) (P36888 whole entry): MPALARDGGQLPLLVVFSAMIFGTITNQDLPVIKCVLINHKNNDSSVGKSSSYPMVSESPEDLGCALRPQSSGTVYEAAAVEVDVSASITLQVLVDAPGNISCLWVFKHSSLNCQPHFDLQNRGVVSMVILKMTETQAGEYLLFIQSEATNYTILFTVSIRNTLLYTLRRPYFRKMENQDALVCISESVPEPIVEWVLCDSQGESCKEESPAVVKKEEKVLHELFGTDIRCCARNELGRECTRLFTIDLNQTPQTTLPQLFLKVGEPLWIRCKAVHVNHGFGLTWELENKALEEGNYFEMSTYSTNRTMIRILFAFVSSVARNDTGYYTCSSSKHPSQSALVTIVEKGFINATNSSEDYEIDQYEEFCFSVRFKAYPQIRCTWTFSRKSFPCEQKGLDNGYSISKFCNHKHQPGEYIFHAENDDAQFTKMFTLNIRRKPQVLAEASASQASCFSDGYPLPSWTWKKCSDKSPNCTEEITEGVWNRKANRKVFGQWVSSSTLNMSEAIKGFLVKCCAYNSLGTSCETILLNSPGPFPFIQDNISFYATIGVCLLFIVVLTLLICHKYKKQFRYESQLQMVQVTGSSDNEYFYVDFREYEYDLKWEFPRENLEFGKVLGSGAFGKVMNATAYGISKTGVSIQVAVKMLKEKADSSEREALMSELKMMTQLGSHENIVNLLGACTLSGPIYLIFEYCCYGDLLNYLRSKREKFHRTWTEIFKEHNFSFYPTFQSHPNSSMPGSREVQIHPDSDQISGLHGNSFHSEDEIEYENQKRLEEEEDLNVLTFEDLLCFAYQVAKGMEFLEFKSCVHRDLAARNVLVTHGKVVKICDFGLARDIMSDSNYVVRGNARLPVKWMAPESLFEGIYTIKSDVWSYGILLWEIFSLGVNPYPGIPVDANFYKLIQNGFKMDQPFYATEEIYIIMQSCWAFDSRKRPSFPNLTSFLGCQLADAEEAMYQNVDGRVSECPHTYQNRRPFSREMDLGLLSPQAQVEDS

Chain of Tyrosine-protein kinase JAK1 (P23458 whole entry): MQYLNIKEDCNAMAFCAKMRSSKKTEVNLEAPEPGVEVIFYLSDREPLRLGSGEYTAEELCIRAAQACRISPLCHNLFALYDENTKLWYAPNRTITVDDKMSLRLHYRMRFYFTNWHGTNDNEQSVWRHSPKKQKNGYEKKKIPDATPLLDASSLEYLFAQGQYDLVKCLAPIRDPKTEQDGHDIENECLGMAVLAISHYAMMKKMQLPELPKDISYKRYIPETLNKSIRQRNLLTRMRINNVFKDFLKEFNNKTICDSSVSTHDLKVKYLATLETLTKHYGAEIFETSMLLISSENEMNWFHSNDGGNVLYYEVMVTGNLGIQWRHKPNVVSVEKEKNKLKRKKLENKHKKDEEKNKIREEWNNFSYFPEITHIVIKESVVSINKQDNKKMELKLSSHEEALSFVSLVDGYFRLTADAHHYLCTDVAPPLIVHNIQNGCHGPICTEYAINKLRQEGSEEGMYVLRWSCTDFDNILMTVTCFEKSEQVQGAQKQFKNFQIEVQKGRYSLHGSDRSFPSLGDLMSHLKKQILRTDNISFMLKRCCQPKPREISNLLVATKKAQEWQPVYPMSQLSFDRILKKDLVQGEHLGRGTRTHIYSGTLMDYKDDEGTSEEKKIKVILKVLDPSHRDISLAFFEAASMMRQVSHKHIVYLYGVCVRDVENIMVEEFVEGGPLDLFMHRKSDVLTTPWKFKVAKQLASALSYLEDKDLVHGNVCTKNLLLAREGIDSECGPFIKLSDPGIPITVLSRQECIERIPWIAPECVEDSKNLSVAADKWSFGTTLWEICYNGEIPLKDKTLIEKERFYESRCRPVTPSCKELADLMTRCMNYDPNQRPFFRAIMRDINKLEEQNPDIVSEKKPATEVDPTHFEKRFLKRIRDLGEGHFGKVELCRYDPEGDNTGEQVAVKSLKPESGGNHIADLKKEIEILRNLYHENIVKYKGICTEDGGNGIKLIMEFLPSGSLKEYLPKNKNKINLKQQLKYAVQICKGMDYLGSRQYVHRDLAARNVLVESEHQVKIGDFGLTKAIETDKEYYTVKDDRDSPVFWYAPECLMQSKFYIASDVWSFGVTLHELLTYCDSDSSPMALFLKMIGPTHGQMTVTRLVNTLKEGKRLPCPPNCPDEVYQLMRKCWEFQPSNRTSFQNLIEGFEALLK
Chain of Tyrosine-protein kinase JAK2 (O60674 whole entry): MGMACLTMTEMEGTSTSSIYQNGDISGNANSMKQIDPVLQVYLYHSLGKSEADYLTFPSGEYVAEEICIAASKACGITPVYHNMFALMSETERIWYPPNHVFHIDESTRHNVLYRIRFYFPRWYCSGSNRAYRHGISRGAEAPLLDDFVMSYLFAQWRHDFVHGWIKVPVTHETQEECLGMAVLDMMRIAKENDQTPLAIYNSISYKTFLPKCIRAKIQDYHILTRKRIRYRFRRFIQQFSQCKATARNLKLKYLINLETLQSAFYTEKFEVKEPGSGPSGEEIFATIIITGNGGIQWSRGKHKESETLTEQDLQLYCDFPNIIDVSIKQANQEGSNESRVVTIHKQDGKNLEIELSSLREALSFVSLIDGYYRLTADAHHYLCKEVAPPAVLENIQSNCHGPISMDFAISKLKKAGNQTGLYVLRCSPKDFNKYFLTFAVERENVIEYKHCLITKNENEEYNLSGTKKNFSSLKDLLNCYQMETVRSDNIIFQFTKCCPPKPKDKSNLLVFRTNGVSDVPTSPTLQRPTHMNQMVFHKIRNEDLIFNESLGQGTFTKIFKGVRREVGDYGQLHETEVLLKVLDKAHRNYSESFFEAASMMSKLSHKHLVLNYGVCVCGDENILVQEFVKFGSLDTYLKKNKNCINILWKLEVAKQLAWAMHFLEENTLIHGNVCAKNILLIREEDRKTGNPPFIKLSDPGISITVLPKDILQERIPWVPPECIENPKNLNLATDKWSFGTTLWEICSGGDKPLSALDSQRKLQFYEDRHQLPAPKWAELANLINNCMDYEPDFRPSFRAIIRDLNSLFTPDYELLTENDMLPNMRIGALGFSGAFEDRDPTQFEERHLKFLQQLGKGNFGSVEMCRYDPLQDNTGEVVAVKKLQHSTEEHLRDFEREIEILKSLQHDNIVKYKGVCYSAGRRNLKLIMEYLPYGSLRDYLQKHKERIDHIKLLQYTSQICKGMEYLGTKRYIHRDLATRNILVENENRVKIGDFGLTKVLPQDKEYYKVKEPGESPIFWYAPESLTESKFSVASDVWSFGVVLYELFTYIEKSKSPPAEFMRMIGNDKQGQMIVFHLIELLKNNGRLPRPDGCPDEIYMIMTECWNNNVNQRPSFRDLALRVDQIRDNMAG

Structure (SMILES): CCCCN1CCC(n2cc(-c3nc(Nc4ccc(N5CCN(C)CC5)c(F)c4)ncc3F)cn2)CC1
IC50 (MV4-11): 240 nM
IC50 (MOLM-13): 180 nM
Activity [1]: 68%
Activity [2]: 19%
Activity [3]: 32%
Activity [4]: 13%

Structure (SMILES): CCCN1CCC(n2cc(-c3nc(Nc4ccc(N5CCN(C)CC5)c(F)c4)ncc3F)cn2)CC1
IC50 (MV4-11): 110 nM
IC50 (MOLM-13): 190 nM

Structure (SMILES): CN(C)C1CCN(c2ccc(Nc3ncc(F)c(-c4cnn(C5CCCC5)c4)n3)cc2F)CC1
IC50 (MV4-11): 4500 nM

Structure (SMILES): CC(C)n1cc(-c2nc(Nc3ccc(N4CCC(N(C)C)CC4)c(F)c3)ncc2F)cn1
IC50 (MV4-11): 32 nM
IC50 (MOLM-13): 540 nM
Activity [1]: 57%
Activity [2]: 6%
Activity [3]: 48%
Activity [4]: 9%

Structure (SMILES): CCCN(CCN1CCOCC1)C1CCN(c2ccc(Nc3ncc(C)c(-c4cnn(C(C)C)c4)n3)cc2F)CC1
IC50 (MV4-11): 210 nM
IC50 (MOLM-13): 210 nM
Activity [1]: 20%
Activity [2]: 8%
Activity [3]: 9%
Activity [4]: 8%

Structure (SMILES): Cc1cnc(Nc2ccc(N3CCN(C)CC3)c(F)c2)nc1-c1cnn(C(C)C)c1
IC50 (MV4-11): 42 nM
IC50 (MOLM-13): 120 nM
Activity [1]: 35%
Activity [2]: 3%
Activity [3]: 40%
Activity [4]: 6%

Structure (SMILES): CCCCCCN(C)C1CCN(c2ccc(Nc3ncc(C)c(-c4cnn(C(C)C)c4)n3)cc2F)CC1
IC50 (MV4-11): 70 nM
IC50 (MOLM-13): 210 nM
Activity [1]: 26%
Activity [2]: 18%
Activity [3]: 44%
Activity [4]: 6%

Structure (SMILES): CCCn1cc(-c2nc(Nc3ccc(N4CCN(C)CC4)cc3F)ncc2F)cn1
IC50 (MV4-11): 8100 nM
IC50 (MOLM-13): 9700 nM

Structure (SMILES): CCN(CCN1CCOCC1)C1CCN(c2ccc(Nc3ncc(C)c(-c4cnn(C(C)C)c4)n3)cc2F)CC1
IC50 (MV4-11): 43 nM
IC50 (MOLM-13): 150 nM
Activity [1]: 23%
Activity [2]: 11%
Activity [3]: 33%
Activity [4]: 7%

Structure (SMILES): Cc1cnc(Nc2ccc(N3CCC(NCCO)CC3)c(F)c2)nc1-c1cnn(C(C)C)c1
IC50 (MV4-11): 200 nM
IC50 (MOLM-13): 550 nM

Structure (SMILES): Cc1cnc(Nc2ccc(N3CCC(N(C)CCCCCO)CC3)c(F)c2)nc1-c1cnn(C(C)C)c1
IC50 (MV4-11): > 1000 nM
IC50 (MOLM-13): > 10000 nM

Structure (SMILES): CCCn1cc(-c2nc(Nc3ccc(N4CCN(C)CC4)c(F)c3)ncc2F)cn1
IC50 (MV4-11): 57 nM
IC50 (MOLM-13): 490 nM
Activity [1]: 48%
Activity [2]: 19%
Activity [3]: 69%
Activity [4]: 14%

Structure (SMILES): CN1CCN(c2ccc(Nc3ncc(F)c(-c4cnn(C5CCCC5)c4)n3)cc2F)CC1
IC50 (MV4-11): 8300 nM

Structure (SMILES): Cc1cnc(Nc2ccc(N3CCC(N(C)CC4CCCO4)CC3)c(F)c2)nc1-c1cnn(C(C)C)c1 (stereo not given)
IC50 (MV4-11): 30 nM
IC50 (MOLM-13): 70 nM
Activity [1]: 23%
Activity [2]: 10%
Activity [3]: 36%
Activity [4]: 6%

Structure (SMILES): Cc1cnc(Nc2ccc(N3CCC(CO)CC3)c(F)c2)nc1-c1cnn(C(C)C)c1
IC50 (MV4-11): 160 nM
IC50 (MOLM-13): 840 nM

Structure (SMILES): CCN1CCN(c2ccc(Nc3ncc(F)c(-c4cnn(C(C)C)c4)n3)c(F)c2)CC1
IC50 (MV4-11): 57 nM
IC50 (MOLM-13): 850 nM
Activity [1]: 113%
Activity [2]: 39%
Activity [3]: 77%
Activity [4]: 16%

Structure (SMILES): CCN1CCN(c2ccc(Nc3ncc(C)c(-c4cnn(C(C)C)c4)n3)cc2F)CC1
IC50 (MV4-11): 1100 nM
IC50 (MOLM-13): 4000 nM

Structure (SMILES): CC(C)n1cc(-c2nc(Nc3ccc(N4CCN(C5CCN(C)CC5)CC4)c(F)c3)ncc2F)cn1
IC50 (MV4-11): 36 nM
IC50 (MOLM-13): 590 nM
Activity [1]: 54%
Activity [2]: 10%
Activity [3]: 44%
Activity [4]: 10%

Structure (SMILES): CCCn1cc(-c2nc(Nc3ccc(N4CCN(CC)CC4)cc3F)ncc2F)cn1
IC50 (MV4-11): 4200 nM
IC50 (MOLM-13): > 10000 nM

Structure (SMILES): CCN1CCN(c2ccc(Nc3ncc(F)c(-c4cnn(C(C)C)c4)n3)cc2F)CC1
IC50 (MV4-11): 31 nM
IC50 (MOLM-13): 250 nM
Activity [1]: 62%
Activity [2]: 17%
Activity [3]: 66%
Activity [4]: 17%

Structure (SMILES): CCCn1cc(-c2nc(Nc3ccc(N4CCN(CC)CC4)c(F)c3)ncc2F)cn1
IC50 (MV4-11): 61 nM
IC50 (MOLM-13): 410 nM
Activity [1]: 59%
Activity [2]: 27%
Activity [3]: 52%
Activity [4]: 15%

Structure (SMILES): CC(C)n1cc(-c2nc(Nc3ccc(N4CCN(C)CC4)cc3F)ncc2F)cn1
IC50 (MV4-11): 7800 nM

These reach a lower IC50 (MV4-11). Values come first.

IC50 (MV4-11): 27 nM
IC50 (MOLM-13): 540 nM
Activity [1]: 49%
Activity [2]: 15%
Activity [3]: 41%
Activity [4]: 11%
Structure (SMILES): CCCCn1cc(-c2nc(Nc3ccc(N4CCN(C)CC4)c(F)c3)ncc2F)cn1

IC50 (MV4-11): 27 nM
IC50 (MOLM-13): 410 nM
Activity [1]: 57%
Activity [2]: 27%
Activity [3]: 68%
Activity [4]: 12%
Structure (SMILES): CCN1CCN(c2ccc(Nc3ncc(F)c(-c4cnn(C5CCCC5)c4)n3)cc2F)CC1

IC50 (MV4-11): 26 nM
IC50 (MOLM-13): 940 nM
Structure (SMILES): CC(C)n1cc(-c2nc(Nc3ccc(N4CCN(C)CC4)c(F)c3)ncc2F)cn1

IC50 (MV4-11): 26 nM
IC50 (MOLM-13): 100 nM
Activity [1]: 36%
Activity [2]: 8%
Activity [3]: 47%
Activity [4]: 10%
Structure (SMILES): CC(C)n1cc(-c2nc(Nc3ccc(N4CCC(N5CCCCC5)CC4)c(F)c3)ncc2F)cn1

IC50 (MV4-11): 18 nM
IC50 (MOLM-13): 89 nM
Activity [1]: 20%
Activity [2]: 23%
Activity [3]: 37%
Activity [4]: 5%
Structure (SMILES): Cc1cnc(Nc2ccc(N3CCC(N(C)CCN4CCOCC4)CC3)c(F)c2)nc1-c1cnn(C(C)C)c1

IC50 (MV4-11): 12 nM
IC50 (MOLM-13): 170 nM
Activity [1]: 21%
Activity [2]: 4%
Activity [3]: 38%
Activity [4]: 6%
Structure (SMILES): Cc1cnc(Nc2ccc(N3CCC(N(C)CCN4CCCCC4)CC3)c(F)c2)nc1-c1cnn(C(C)C)c1

IC50 (MV4-11): 8.1 nM
IC50 (MOLM-13): 31 nM
Activity [1]: 20%
Activity [2]: 15%
Activity [3]: 31%
Activity [4]: 4%
Structure (SMILES): Cc1cnc(Nc2ccc(N3CCC(N(C)CC4CC4)CC3)c(F)c2)nc1-c1cnn(C(C)C)c1

IC50 (MV4-11): 7.3 nM
IC50 (MOLM-13): 28 nM
Activity [1]: 19%
Activity [2]: 9%
Activity [3]: 28%
Activity [4]: 5%
Structure (SMILES): CCOCCN(C)C1CCN(c2ccc(Nc3ncc(C)c(-c4cnn(C(C)C)c4)n3)cc2F)CC1

IC50 (MV4-11): 7.3 nM
IC50 (MOLM-13): 47 nM
Activity [1]: 24%
Activity [2]: 3%
Activity [3]: 9%
Activity [4]: 6%
Structure (SMILES): CCCN(C)C1CCN(c2ccc(Nc3ncc(C)c(-c4cnn(C(C)C)c4)n3)cc2F)CC1

IC50 (MV4-11): 5.4 nM
IC50 (MOLM-13): 100 nM
Activity [1]: 17%
Activity [2]: 5%
Activity [3]: 23%
Activity [4]: 8%
Structure (SMILES): Cc1cnc(Nc2ccc(N3CCC(N(C)C)CC3)c(F)c2)nc1-c1cnn(C(C)C)c1
